Reference: US4478763A, “Process for preparing alpha-fluorinated alkanediphosphonates” (Univ. of Southern California, priority 1982, dated 1984)
“Also recorded” adds a separate entry of the source. Read-outs that look alike come from different tables or passages of the source.

Tests used:
[1] = cited from earlier work
[2] = Acidity comparison among methanediphosphonic acids; type: physicochemical; conditions: for acidity compared with other methanediphosphonic acids (in words): qualitative comparison
Method: (§1) The effect of fluorine substitution on the acidity of methanediphosphonic acid is of interest. Using the empirical equations developed by R. G. Grabenstetter et al. J. Phys. Chem. 71, 4194 (1967), estimated pK° values for mono and difluoro methanediphosphonic acid were calculated and compared with experimental pK° data for the parent acid. It should be noted that the cited work set forth two alternative Taft equations for pK°4 on giving an optimal fit with bulkier substitution (e.g., CH3) and one to fit data for less sterically hindering substituents (e.g., H).

[3] = system: bone resorption; experiment: Inhibition of bone resorption; conditions: compared with known drugs; no test data given
[4] = Estimation of pK° values of mono and difluoro methanediphosphonic acid from 31P chemical shift data; type: physicochemical; conditions: calculated from 31P chemical shift data
Method: as §1

[5] = experimental pK° data, parent acid
[6] = dichloro methanediphosphonic acid

In the case of `O=P(O)(O)CP(=O)(O)O` [MDPA, methanediphosphonic acid], the “pK° 2” value [1, 5] is listed as 3.1, the “pK°3” value [1, 5] is listed as 7.4 and the “pK° 4” value [1, 5] is listed as 11.0.

In the case of `O=P(O)(O)C(Cl)(Cl)P(=O)(O)O` [dichloro methanediphosphonic acid], the “pK°3” value [1, 6] is listed as 6.1, the “pK° 4” value [1, 6] is listed as 9.8 and the “acidity compared with other methanediphosphonic acids (in words)” value [2] is listed as “weaker than the difluoro substituted acid”.

With `O=P(O)(O)C(F)(F)P(=O)(O)O` [difluoro MDPA, Difluoro Methanediphosphonic Acid] the “inhibition of bone resorption” value [3] was “inhibits bone resorption at least as effectively as known drugs”, the “acidity of the fourth proton relative to unfluorinated parent acid” value ([2]; more acidic than the unfluorinated parent acid, calculated) was 100 fold and the “acidity compared with other methanediphosphonic acids (in words)” value [2] was “strongest of the halomethanediphosphonic acids”. It also gave a pKa ([4]; read-out: pK° 2) of 2.57, a pKa ([4]; read-out: pK° 3) of 6.08 and a pKa ([4]; read-out: pK° 4) of 9.07.

For `O=P(O)(O)C(F)P(=O)(O)O` [monofluoro MDPA, Fluoro Methanediphosphonic Acid], the “acidity compared with other methanediphosphonic acids (in words)” value ([2]; listed as monofluoro acid) was “one order of magnitude below that of the parent acid; also recorded: comparable to that of dichloro methanediphosphonic acid”, the “pK° 4” value ([4]; listed as monofluoro acid) was “approximately 10.1” and the pKa ([4]; read-out: pK° 2) was 2.78. It also gave a pKa ([4]; read-out: pK° 3) of 6.62 and a pKa ([4]; read-out: pK° 4) of 10.1.
